According to US20090311237A1, “Combination therapy using a soluble hyaluronidase and a bisphosphonate” (priority 2008, published 2009):
Read-outs that look alike come from different tables or passages of the source.

Experiment: Phase 1 Stage 1 clinical pharmacokinetics of SC ZA co-administered with rHuPH20
Assay type: in vivo, human
Conditions: human, serum, sc; for Tmax: read-out: Tmax
Experimental: A pharmacokinetic study of zoledronic acid (ZA) co-administered with rHuPH20 in human subjects was conducted. The primary objective of the study was to determine the bioavailability of zoledronic acid dosed via subcutaneous (SC) co-administration with human recombinant hyaluronidase PH20 (rHuPH20). […] The patients were administered the prescribed dosage formulations as follows: Cohorts 1-5 were administered a single subcutaneous infusion in a dosage volume of 100 ml at a rate of 3 mL/min. […] The dosing solution is administered via needle or catheter into the SC space of the left anterior thigh (midway between the anterior iliac crest and the cephalad border of the patella). For cohorts 1-5, the dosing solutions were administered by a controlled rate infusion pump at approximately 3 mL/minute. […] The dosing solutions were administered by syringe push bolus injection. […] Serum concentration of ZA was determined using a qualified LC-MS-MS assay after derivatization with diazomethane (Zhu, L S et al. (2006) Rapid Commun. […] The assay range was from 2.0 to 400 ng/mL with a lower limit of quantitation (LLOQ) at 2.0 ng/mL. […] Non-compartmental analysis was used for derivation of primary and secondary pharmacokinetic (PK) parameters. […] Summary statistics (mean, standard deviation, and median) were calculated using JMP or Microsoft Excel.

[1] = 0.0791 mg/kg, Subj 37, ZA 0.0791 mg/kg SC, inf 0.556 hr, PH20 24000 U
[2] = 0.0794 mg/kg, Subj 74, ZA 0.0794 mg/kg SC, inf […], PH20 6000 U
[3] = 0.082 mg/kg, Subj 63, ZA 0.0820 mg/kg SC, inf […], PH20 6000 U
[4] = 0.0877 mg/kg, Subj 46, ZA 0.0877 mg/kg SC, inf 0.276 hr, PH20 12000 U
[5] = ZA 0.25 mg SC + 24000 U rHuPH20, individual subjects
[6] = ZA 0.25 mg SC + 24000 U rHuPH20, mean, n=3
[7] = ZA 0.25 mg SC + 24000 U rHuPH20, median, n=3
[8] = ZA 0.5 mg SC + 24000 U rHuPH20, individual subjects
[9] = ZA 0.5 mg SC + 24000 U rHuPH20, mean, n=3
[10] = ZA 0.5 mg SC + 24000 U rHuPH20, median, n=3
[11] = ZA 1 mg SC + 24000 U rHuPH20, individual subjects

With `O=P(O)(O)C(O)(Cn1ccnc1)P(=O)(O)O` [ZA, 1-hydroxy-2-(1H-imidazol-1-yl)ethylidene-1,1-bisphosphonic acid] the AUC(0-t) (0.0791 mg/kg, AUC (0-12 h), Subj 37, ZA 0.0791 mg/kg SC, inf 0.556 hr, PH20 24000 U) was 0.499 µg·h/mL, the AUC(0-t) (0.0791 mg/kg, AUC (0-24 h), Subj 37, ZA 0.0791 mg/kg SC, inf 0.556 hr, PH20 24000 U) was 0.536 µg·h/mL and the AUC(0-t) (0.0791 mg/kg, AUC (0-48 h), Subj 37, ZA 0.0791 mg/kg SC, inf 0.556 hr, PH20 24000 U) was 0.578 µg·h/mL. For the same molecule, the Cmax [1] was 0.131 µg/mL, the AUC(0-inf) (0.0791 mg/kg, Subj 37, ZA 0.0791 mg/kg SC, inf 0.556 hr, PH20 24000 U, read-out: AUC (0-inf)) was 0.62 µg·h/mL and the Tmax [1] was 0.81 h. For the same molecule, the AUC(0-t) (0.0794 mg/kg, AUC (0-12 h), Subj 74, ZA 0.0794 mg/kg SC, inf […], PH20 6000 U) was 0.426 µg·h/mL, the AUC(0-t) (0.0794 mg/kg, AUC (0-24 h), Subj 74, ZA 0.0794 mg/kg SC, inf […], PH20 6000 U) was 0.467 µg·h/mL and the AUC(0-t) (0.0794 mg/kg, AUC (0-48 h), Subj 74, ZA 0.0794 mg/kg SC, inf […], PH20 6000 U) was 0.509 µg·h/mL. The Cmax [2] was 0.12 µg/mL, the AUC(0-inf) (0.0794 mg/kg, Subj 74, ZA 0.0794 mg/kg SC, inf […], PH20 6000 U, read-out: AUC (0-inf)) was 0.555 µg·h/mL and the Tmax [2] was 0.75 h. It also gave an AUC(0-t) (0.082 mg/kg, AUC (0-12 h), Subj 63, ZA 0.0820 mg/kg SC, inf […], PH20 6000 U) of 0.497 µg·h/mL, an AUC(0-t) (0.082 mg/kg, AUC (0-24 h), Subj 63, ZA 0.0820 mg/kg SC, inf […], PH20 6000 U) of 0.559 µg·h/mL and an AUC(0-t) (0.082 mg/kg, AUC (0-48 h), Subj 63, ZA 0.0820 mg/kg SC, inf […], PH20 6000 U) of 0.613 µg·h/mL. The Cmax [3] was 0.167 µg/mL, the AUC(0-inf) (0.082 mg/kg, Subj 63, ZA 0.0820 mg/kg SC, inf […], PH20 6000 U, read-out: AUC (0-inf)) was 0.662 µg·h/mL and the Tmax [3] was 0.5 h. It also gave an AUC(0-t) (0.0877 mg/kg, AUC (0-12 h), Subj 46, ZA 0.0877 mg/kg SC, inf 0.276 hr, PH20 12000 U) of 0.61 µg·h/mL, an AUC(0-t) (0.0877 mg/kg, AUC (0-24 h), Subj 46, ZA 0.0877 mg/kg SC, inf 0.276 hr, PH20 12000 U) of 0.656 µg·h/mL and an AUC(0-t) (0.0877 mg/kg, AUC (0-48 h), Subj 46, ZA 0.0877 mg/kg SC, inf 0.276 hr, PH20 12000 U) of 0.706 µg·h/mL. It also gave a Cmax [4] of 0.213 µg/mL, an AUC(0-inf) (0.0877 mg/kg, Subj 46, ZA 0.0877 mg/kg SC, inf 0.276 hr, PH20 12000 U, read-out: AUC (0-inf)) of 0.747 µg·h/mL and a Tmax [4] of 0.78 h. It also gave an MRT (0.5 mg, ZA 0.5 mg, SC […] infusion, 100 mL, 3 mL/min, 24000 Units rHuPH20, extrapolated to ∞, individual subjects, read-out: SC MRT) of 3.19 h, an MRT (1 mg, ZA 1 mg, SC […] infusion, 100 mL, 3 mL/min, 24000 Units rHuPH20, extrapolated to ∞, individual subjects, read-out: SC MRT) of 6.93 h and an MRT (2 mg, ZA 2 mg, SC […] infusion, 100 mL, 3 mL/min, 24000 Units rHuPH20, extrapolated to ∞, individual subjects, read-out: SC MRT) of 5.72 h. For the same molecule, the MRT (5 mg, ZA 5 mg, SC […] infusion, 100 mL, 3 mL/min, 24000 Units rHuPH20, extrapolated to ∞, individual subjects, read-out: SC MRT) was 10.9 h, the AUC(0-t) (AUC (0-12h), ZA 0.25 mg SC + 24000 U rHuPH20, individual subjects) was 0.0297 µg·h/mL and the AUC(0-t) (AUC (0-12h), ZA 0.25 mg SC + 24000 U rHuPH20, mean, n=3) was 0.0295 µg·h/mL. For the same molecule, the AUC(0-t) (AUC (0-12h), ZA 0.25 mg SC + 24000 U rHuPH20, median, n=3) was 0.0295 µg·h/mL, the AUC(0-t) (AUC (0-12h), ZA 0.5 mg SC + 24000 U rHuPH20, individual subjects) was 0.0608 µg·h/mL and the AUC(0-t) (AUC (0-12h), ZA 0.5 mg SC + 24000 U rHuPH20, mean, n=3) was 0.0632 µg·h/mL. The AUC(0-t) (AUC (0-12h), ZA 0.5 mg SC + 24000 U rHuPH20, median, n=3) was 0.0624 µg·h/mL, the AUC(0-t) (AUC (0-12h), ZA 1 mg SC + 24000 U rHuPH20, individual subjects) was 0.103 µg·h/mL and the AUC(0-t) (AUC (0-12h), ZA 1 mg SC + 24000 U rHuPH20, mean, n=3) was 0.115 µg·h/mL. For the same molecule, the AUC(0-t) (AUC (0-12h), ZA 1 mg SC + 24000 U rHuPH20, median, n=3) was 0.104 µg·h/mL, the AUC(0-t) (AUC (0-12h), ZA 2 mg SC + 24000 U rHuPH20, individual subjects) was 0.218 µg·h/mL and the AUC(0-t) (AUC (0-12h), ZA 2 mg SC + 24000 U rHuPH20, mean, n=3) was 0.223 µg·h/mL. The AUC(0-t) (AUC (0-12h), ZA 2 mg SC + 24000 U rHuPH20, median, n=3) was 0.218 µg·h/mL, the AUC(0-t) (AUC (0-12h), ZA 5 mg SC + 24000 U rHuPH20, individual subjects) was 0.499 µg·h/mL and the AUC(0-t) (AUC (0-12h), ZA 5 mg SC + 24000 U rHuPH20, mean, n=3) was 0.517 µg·h/mL. It also gave an AUC(0-t) (AUC (0-12h), ZA 5 mg SC + 24000 U rHuPH20, median, n=3) of 0.499 µg·h/mL, a CL/F [5] of 0.148 L/h/kg and a Cmax [5] of 0.00684 µg/mL. It also gave an AUC(0-inf) (ZA 0.25 mg SC + 24000 U rHuPH20, individual subjects, read-out: AUC (0-∞)) of 0.0308 µg·h/mL, an MRT (ZA 0.25 mg SC + 24000 U rHuPH20, individual subjects, read-out: MRT) of 2.93 h and a Tmax [5] of 1.06 h. It also gave a Vd/F (ZA 0.25 mg SC + 24000 U rHuPH20, individual subjects, read-out: Vss/F) of 0.435 L/kg, a Vd/F (ZA 0.25 mg SC + 24000 U rHuPH20, individual subjects, read-out: Vz/F) of 0.402 L/kg and a CL/F [6] of 0.12 L/h/kg. It also gave a Cmax [6] of 0.00675 µg/mL, an AUC(0-inf) (ZA 0.25 mg SC + 24000 U rHuPH20, mean, n=3, read-out: AUC (0-∞)) of 0.0309 µg·h/mL and an MRT (ZA 0.25 mg SC + 24000 U rHuPH20, mean, n=3, read-out: MRT) of 3.5 h. The Tmax [6] was 1.31 h, the Vd/F (ZA 0.25 mg SC + 24000 U rHuPH20, mean, n=3, read-out: Vss/F) was 0.411 L/kg and the Vd/F (ZA 0.25 mg SC + 24000 U rHuPH20, mean, n=3, read-out: Vz/F) was 0.364 L/kg. The CL/F [7] was 0.108 L/h/kg, the Cmax [7] was 0.00684 µg/mL and the AUC(0-inf) (ZA 0.25 mg SC + 24000 U rHuPH20, median, n=3, read-out: AUC (0-∞)) was 0.0308 µg·h/mL. For the same molecule, the MRT (ZA 0.25 mg SC + 24000 U rHuPH20, median, n=3, read-out: MRT) was 3.37 h, the Tmax [7] was 1.31 h and the Vd/F (ZA 0.25 mg SC + 24000 U rHuPH20, median, n=3, read-out: Vss/F) was 0.433 L/kg. It also gave a Vd/F (ZA 0.25 mg SC + 24000 U rHuPH20, median, n=3, read-out: Vz/F) of 0.363 L/kg, an MRT (ZA 0.25 mg, SC […] infusion, 100 mL, 3 mL/min, 24000 Units rHuPH20, extrapolated to ∞, individual subjects, read-out: SC MRT) of 3.37 h and a CL/F [8] of 0.141 L/h/kg. For the same molecule, the Cmax [8] was 0.0153 µg/mL, the AUC(0-inf) (ZA 0.5 mg SC + 24000 U rHuPH20, individual subjects, read-out: AUC (0-∞)) was 0.0625 µg·h/mL and the MRT (ZA 0.5 mg SC + 24000 U rHuPH20, individual subjects, read-out: MRT) was 3.19 h. It also gave a Tmax [8] of 0.81 h, a Vd/F (ZA 0.5 mg SC + 24000 U rHuPH20, individual subjects, read-out: Vss/F) of 0.451 L/kg and a Vd/F (ZA 0.5 mg SC + 24000 U rHuPH20, individual subjects, read-out: Vz/F) of 0.456 L/kg. It also gave a CL/F [9] of 0.125 L/h/kg, a Cmax [9] of 0.0155 µg/mL and an AUC(0-inf) (ZA 0.5 mg SC + 24000 U rHuPH20, mean, n=3, read-out: AUC (0-∞)) of 0.065 µg·h/mL. The MRT (ZA 0.5 mg SC + 24000 U rHuPH20, mean, n=3, read-out: MRT) was 3.26 h, the Tmax [9] was 1.14 h and the Vd/F (ZA 0.5 mg SC + 24000 U rHuPH20, mean, n=3, read-out: Vss/F) was 0.406 L/kg. The Vd/F (ZA 0.5 mg SC + 24000 U rHuPH20, mean, n=3, read-out: Vz/F) was 0.407 L/kg, the CL/F [10] was 0.131 L/h/kg and the Cmax [10] was 0.0153 µg/mL. For the same molecule, the AUC(0-inf) (ZA 0.5 mg SC + 24000 U rHuPH20, median, n=3, read-out: AUC (0-∞)) was 0.0644 µg·h/mL, the MRT (ZA 0.5 mg SC + 24000 U rHuPH20, median, n=3, read-out: MRT) was 3.24 h and the Tmax [10] was 1.31 h. The Vd/F (ZA 0.5 mg SC + 24000 U rHuPH20, median, n=3, read-out: Vss/F) was 0.423 L/kg, the Vd/F (ZA 0.5 mg SC + 24000 U rHuPH20, median, n=3, read-out: Vz/F) was 0.428 L/kg and the CL/F [11] was 0.143 L/h/kg. It also gave a Cmax [11] of 0.0301 µg/mL and an AUC(0-inf) (ZA 1 mg SC + 24000 U rHuPH20, individual subjects, read-out: AUC (0-∞)) of 0.122 µg·h/mL.
